Laboratory results reported in PubChem BioAssay (NCI).
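Where inhibition never reached the appropriate level, the endpoint shown equals the highest concentration tested. Otherwise, values were interpolated linearly from a five-concentration, 48-hour dose response in 96-well plates. TGI marks complete inhibition of growth.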

Key:
Assay in all cases: NCI-60 cell line screen, 48 h
RPMI-8226 leukemia = system: RPMI-8226 leukemia
OVCAR-3 ovarian = system: OVCAR-3 ovarian
NCI/ADR-RES ovarian = system: NCI/ADR-RES ovarian
MCF7 breast = system: MCF7 breast
RXF 393 renal = system: RXF 393 renal
COLO 205 colon = system: COLO 205 colon
DU-145 prostate = system: DU-145 prostate
CAKI-1 renal = system: CAKI-1 renal
TK-10 renal = system: TK-10 renal
PC-3 prostate = system: PC-3 prostate
SF-539 CNS = system: SF-539 CNS
SF-295 CNS = system: SF-295 CNS
786-0 renal = system: 786-0 renal
HCT-15 colon = system: HCT-15 colon
HCC-2998 colon = system: HCC-2998 colon
UACC-257 melanoma = system: UACC-257 melanoma
SNB-75 CNS = system: SNB-75 CNS
IGROV1 ovarian = system: IGROV1 ovarian
MDA-MB-435 = system: MDA-MB-435
SF-268 CNS = system: SF-268 CNS
HS 578T breast = system: HS 578T breast
MALME-3M melanoma = system: MALME-3M melanoma
MDA-MB-231 breast = system: MDA-MB-231 breast
NCI-H522 lung = system: NCI-H522 lung
HL-60(TB) leukemia = system: HL-60(TB) leukemia
ACHN renal = system: ACHN renal
HOP-62 NSCLC = system: HOP-62 NSCLC
SNB-19 CNS = system: SNB-19 CNS
A549 NSCLC = system: A549 NSCLC
M14 melanoma = system: M14 melanoma
SK-MEL-28 melanoma = system: SK-MEL-28 melanoma
EKVX NSCLC = system: EKVX NSCLC
OVCAR-4 ovarian = system: OVCAR-4 ovarian
NCI-H23 lung = system: NCI-H23 lung
CCRF-CEM leukemia = system: CCRF-CEM leukemia
SR leukemia = system: SR leukemia
HCT-116 colon = system: HCT-116 colon
HT29 colon = system: HT29 colon
BT-549 breast = system: BT-549 breast
OVCAR-8 ovarian = system: OVCAR-8 ovarian
U251 CNS = system: U251 CNS
MOLT-4 leukemia = system: MOLT-4 leukemia
HOP-92 NSCLC = system: HOP-92 NSCLC
SN12C renal = system: SN12C renal
KM12 colon = system: KM12 colon
T-47D breast = system: T-47D breast
UACC-62 melanoma = system: UACC-62 melanoma
SK-OV-3 ovarian = system: SK-OV-3 ovarian
SW-620 colon = system: SW-620 colon
MDA-N = system: MDA-N
SK-MEL-5 melanoma = system: SK-MEL-5 melanoma
OVCAR-5 ovarian = system: OVCAR-5 ovarian
UO-31 renal = system: UO-31 renal
LOX IMVI melanoma = system: LOX IMVI melanoma
A498 renal = system: A498 renal
NCI-H460 lung = system: NCI-H460 lung
K-562 leukemia = system: K-562 leukemia
NCI-H226 lung = system: NCI-H226 lung
SK-MEL-2 melanoma = system: SK-MEL-2 melanoma

With CCN(CC)CCn1c2cc3c(cc2c(=O)c2cccnc21)OCCO3 the TGI (RPMI-8226 leukemia) was > 10 µM, the TGI (OVCAR-3 ovarian) was > 10 µM and the TGI (NCI/ADR-RES ovarian) was > 10 µM. For the same compound, the TGI (MCF7 breast) was > 10 µM, the TGI (RXF 393 renal) was > 10 µM and the TGI (COLO 205 colon) was > 10 µM. For the same compound, the TGI (DU-145 prostate) was > 10 µM, the TGI (CAKI-1 renal) was > 10 µM and the TGI (TK-10 renal) was > 10 µM. For the same compound, the TGI (PC-3 prostate) was > 10 µM, the TGI (SF-539 CNS) was > 10 µM and the TGI (SF-295 CNS) was > 10 µM. For the same compound, the TGI (786-0 renal) was > 10 µM, the TGI (HCT-15 colon) was > 10 µM and the TGI (HCC-2998 colon) was > 10 µM. For the same compound, the TGI (UACC-257 melanoma) was > 10 µM, the TGI (SNB-75 CNS) was > 10 µM and the TGI (IGROV1 ovarian) was > 10 µM. The TGI (MDA-MB-435) was > 10 µM, the TGI (SF-268 CNS) was > 10 µM and the TGI (HS 578T breast) was > 10 µM. The TGI (MALME-3M melanoma) was > 10 µM, the TGI (MDA-MB-231 breast) was > 10 µM and the TGI (NCI-H522 lung) was > 10 µM. The TGI (HL-60(TB) leukemia) was > 10 µM, the TGI (ACHN renal) was > 10 µM and the TGI (HOP-62 NSCLC) was > 10 µM. For the same compound, the TGI (SNB-19 CNS) was > 10 µM, the TGI (A549 NSCLC) was > 10 µM and the TGI (M14 melanoma) was > 10 µM. For the same compound, the TGI (SK-MEL-28 melanoma) was > 10 µM, the TGI (EKVX NSCLC) was > 10 µM and the TGI (OVCAR-4 ovarian) was > 10 µM. The TGI (NCI-H23 lung) was > 10 µM, the TGI (CCRF-CEM leukemia) was > 10 µM and the TGI (SR leukemia) was > 10 µM. For the same compound, the TGI (HCT-116 colon) was > 10 µM, the TGI (HT29 colon) was > 10 µM and the TGI (BT-549 breast) was > 10 µM. For the same compound, the TGI (OVCAR-8 ovarian) was > 10 µM, the TGI (U251 CNS) was > 10 µM and the TGI (MOLT-4 leukemia) was > 10 µM. The TGI (HOP-92 NSCLC) was > 10 µM, the TGI (SN12C renal) was > 10 µM and the TGI (KM12 colon) was > 10 µM. The TGI (T-47D breast) was > 10 µM, the TGI (UACC-62 melanoma) was > 10 µM and the TGI (SK-OV-3 ovarian) was > 10 µM. The TGI (SW-620 colon) was > 10 µM, the TGI (MDA-N) was > 10 µM and the TGI (SK-MEL-5 melanoma) was > 10 µM.

In the case of Cc1cccc(N2C(=O)C3ON(C(C(N)=O)c4ccccc4)C(c4c5ccccc5c(Cl)c5ccccc45)C3C2=O)c1C (stereo not drawn), the TGI (OVCAR-3 ovarian) is reported as 17.5 µM, the TGI (OVCAR-5 ovarian) is reported as 20.7 µM and the TGI (NCI/ADR-RES ovarian) is reported as 37.1 µM. For the same compound, the TGI (MCF7 breast) was 17.9 µM, the TGI (RXF 393 renal) was 13.5 µM and the TGI (COLO 205 colon) was 16.7 µM. For the same compound, the TGI (DU-145 prostate) was 43.2 µM, the TGI (CAKI-1 renal) was 27.3 µM and the TGI (UO-31 renal) was 24.2 µM. It also gave a TGI (TK-10 renal) of 25.3 µM, a TGI (PC-3 prostate) of 17 µM and a TGI (SF-539 CNS) of 16.8 µM. The TGI (SF-295 CNS) was 23 µM, the TGI (786-0 renal) was 20.5 µM and the TGI (HCT-15 colon) was 22 µM. The TGI (LOX IMVI melanoma) was 16.5 µM, the TGI (UACC-257 melanoma) was 18.1 µM and the TGI (SNB-75 CNS) was 19.4 µM. It also gave a TGI (IGROV1 ovarian) of 32.4 µM, a TGI (MDA-MB-435) of 14.6 µM and a TGI (SF-268 CNS) of 27.3 µM. The TGI (A498 renal) was 32.2 µM, the TGI (HS 578T breast) was > 50 µM and the TGI (MALME-3M melanoma) was 34.7 µM. For the same compound, the TGI (MDA-MB-231 breast) was 18.1 µM, the TGI (NCI-H522 lung) was > 50 µM and the TGI (NCI-H460 lung) was 21.6 µM. The TGI (HL-60(TB) leukemia) was 23.3 µM, the TGI (ACHN renal) was 19.7 µM and the TGI (HOP-62 NSCLC) was 24.4 µM. The TGI (K-562 leukemia) was > 50 µM, the TGI (SNB-19 CNS) was 18.4 µM and the TGI (A549 NSCLC) was 48.5 µM. It also gave a TGI (M14 melanoma) of 16.1 µM, a TGI (SK-MEL-28 melanoma) of 41.7 µM and a TGI (EKVX NSCLC) of 22.5 µM. It also gave a TGI (NCI-H226 lung) of 14.9 µM, a TGI (OVCAR-4 ovarian) of 25.3 µM and a TGI (NCI-H23 lung) of 32.1 µM. For the same compound, the TGI (CCRF-CEM leukemia) was > 50 µM, the TGI (SR leukemia) was 5.53 µM and the TGI (SK-MEL-2 melanoma) was 20 µM. For the same compound, the TGI (HCT-116 colon) was 3.84 µM, the TGI (HT29 colon) was 14.9 µM and the TGI (BT-549 breast) was 22.6 µM. For the same compound, the TGI (OVCAR-8 ovarian) was 25.1 µM, the TGI (U251 CNS) was 15.6 µM and the TGI (MOLT-4 leukemia) was 10.2 µM. It also gave a TGI (HOP-92 NSCLC) of 22.6 µM, a TGI (SN12C renal) of 15.6 µM and a TGI (KM12 colon) of 8.08 µM. The TGI (T-47D breast) was 32.1 µM, the TGI (UACC-62 melanoma) was 13.8 µM and the TGI (SK-OV-3 ovarian) was > 50 µM. For the same compound, the TGI (SW-620 colon) was > 50 µM, the TGI (MDA-N) was 10 µM and the TGI (SK-MEL-5 melanoma) was 13.9 µM.
